This is an account of results in US8481708B2, “snRNA gene-like transcriptional units and uses thereof” (Università degli Studi di Genova, priority 2005, dated 2013).

The structures appear in SMILES notation.

This experiment deals with RNA Polymerase III. The experiment is described as follows: Promoter activity transfection assay with Pol III inhibitor ML-60218. The experiment is classed as cell-based, human. To be noted: after 24 hours of cell treatment with ML-60218 (20 μM); hairpin constructs with novel promoters. Here is the method:
For transient transfections Hela cells (grown in DMEM supplemented with 10% FCS), were grown in multiwell Petri dishes 16 hours before transfection. The expression [21A, 21A(1), 21A(2), 21A(3)] constructs containing the regions of interest cloned in the pTopo vectors (Invitrogen) were introduced into the cells using the Fugene 6 transfection reagent (Roche) according to the manufacturer's instructions. A plasmid Expressing Luciferase was used as control of transfection efficiency (to which all the results were normalized). 24, 48 and 72 hours after transfection cells were harvested and firely luciferase activity was measured by Dual-Luciferase reporter assay system (Promega). manufacturer's protocol.

Regarding `Cc1c(-c2cc(NS(=O)(=O)c3ccccc3Cl)n(C)n2)sc2ccc(Cl)cc12` [ML-60218], the luciferase signal entry is listed as “increased”.
